Measurements from patent US11414442B2, “ARF6 inhibitors and related methods” (Navigen, Inc., priority 2017, dated 2022).
“And” between values parts separate entries of the source, which are not always exact repeats. Equal values may be shown once. Read-outs that look alike come from different tables or passages of the source.

Key:
[1] = tested on: LPS-induced acute lung injury (ALI); test: Mouse model of LPS-induced ALI, BALF cell count and BALF protein; format: in vivo; details: dexamethasone 5 mg/kg IP at T=0 and 6, positive control in the experiments of the compound of that line; mean ± SEM
Experimental: LPS was instilled into the trachea of anesthetized mice. […] The efficacy endpoints were total cell counts and total protein in BALF. All studies were conducted using vehicle negative controls and dexamethasone (5 mg/kg IP at T=0 and 6) as a positive control. Data were analyzed by 1-way ANOVA followed by Tukey's multiple comparison test (GRAPHPAD PRISM® software, version 6.05). […] Reductions in BALF total protein were also observed. […]

[2] = Solubility of ARF6 prodrugs in various vehicles (Table 4); format: physicochemical; details: kinetic from dmso stock, diluted from 10 mM solution in DMSO
[3] = molecular target: ARF6 (Homo sapiens, UniProt P62330); test: ARF6 inhibition, biochemical fluorometric nucleotide exchange assay; details: read-out: ARF6 IC50
Text: These ARF6 inhibitors were discovered using a high-throughput biochemical, fluorometric nucleotide exchange assay to screen 100,000 compounds from a commercially available compound library. Medicinal chemistry optimization efforts have also been conducted. In some embodiments, the clinical potential of the discovered small molecule ARF6 inhibitors can be limited by poor solubility. Accordingly, the synthesis and development of water soluble prodrugs of ARF6 inhibitors can be advantageous. […]

[4] = Solubility in water and PBS pH 7.4 (Tables 1 and 2); format: physicochemical
[5] = Table 2, water, read-out: Solubility Water
[6] = Table 1, water, read-out: Solubility Water
[7] = aqueous buffer, Table 1, PBS pH 7.4, read-out: Solubility PBS pH 7.4

Sequence of ARF6 (P62330 whole entry, species assumed): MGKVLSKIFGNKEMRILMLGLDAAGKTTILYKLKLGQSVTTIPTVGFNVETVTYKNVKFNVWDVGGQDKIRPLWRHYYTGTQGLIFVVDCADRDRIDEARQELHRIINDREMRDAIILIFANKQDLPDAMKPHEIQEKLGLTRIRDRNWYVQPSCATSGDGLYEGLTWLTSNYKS

Compound	IC50 ([3]; Table 1)	solubility [4, 6]	solubility [4, 7]	also measured
C[C@@H]1C[C@H]2[C@@H]3CCC4=CC(=O)C=C[C@]4(C)[C@@]3(F)[C@@H](O)C[C@]2(C)[C@@]1(O)C(=O)CO [DEX, dexamethasone, reference compound]	–	–	–	percent reduction in LPS-induced increase in BALF cell count, DEX [1]: 64 ± 9% and 74 ± 5% and 63 ± 4% and 59 ± 5% and 70 ± 7%
NCC(=O)Oc1cc([N+](=O)[O-])ccc1-c1cc(=O)[nH]c2c(-c3ccc(Cl)cc3)c(Cc3ccccc3)nn12.O=C(O)C(F)(F)F [Example III, [2-[2-Benzyl-3-(4-chlorophenyl)-5-oxo-4H-pyrazolo[1,5-a]pyrimidin-7-yl]-5-nitro-phenyl] 2-aminoacetate trifluoroacetate]	–	–	–	solubility ([2]; 20 mM Na citrate buffer, pH 3.1, aqueous buffer, read-out: Solubility (μM) 20 mM Na Citrate, pH 3.1): 325 µM; solubility ([2]; water, read-out: Solubility (μM) H2O): 375 µM
Cc1ccc(-c2c[nH]c3c(-c4ccc(Cl)cc4)c(Cc4ccccc4)nn3c2=O)c(O)c1 [NAV-AAC′]	–	–	–	IC50 ([3]; Table 2): 3.3 µM; solubility [4, 5]: < 1 mg/mL
N#Cc1ccc(-c2cc(=O)[nH]c3c(-c4ccc(Cl)cc4)c(Cc4ccccc4)nn23)c(OC(=O)[C@@H](N)CCCCN)c1 [NAV-AAD]	2.9 µM	300 µM	< 1 µM	–
NCCCC[C@H](N)C(=O)Oc1cc(F)ccc1-c1cc(=O)[nH]c2c(-c3ccc(Cl)cc3)c(Cc3ccccc3)nn12 [NAV-AAE]	3.3 µM	–	–	–
Cc1ccc(-c2cc(=O)[nH]c3c(-c4ccc(Cl)cc4)c(Cc4ccccc4)nn23)c(OC(=O)[C@@H](N)CCCCN)c1 [NAV-AAF]	> 50 µM	–	–	–
O=c1cc(-c2ccc(F)cc2OP(=O)(O)O)n2nc(Cc3ccccc3)c(-c3ccc(Cl)cc3)c2[nH]1 [NAV-AAP]	9.2 µM	–	–	–
O=c1c(-c2ccc(F)cc2OP(=O)([O-])[O-])c[nH]c2c(-c3ccc(Cl)cc3)c(Cc3ccccc3)nn12.[Na+].[Na+] [NAV-AAP′]	–	–	–	IC50 ([3]; Table 2): 9.2 µM; solubility [4, 5]: > 50 mg/mL
Cc1ccc(-c2cc(=O)[nH]c3c(-c4ccc(Cl)cc4)c(Cc4ccccc4)nn23)c(OP(=O)(O)O)c1 [NAV-AAQ]	4.6 µM	> 50 mg/mL	–	–
Cc1ccc(-c2cc(=O)[nH]c3c(-c4ccc(Cl)cc4)c(Cc4ccccc4)nn23)c(OP(=O)([O-])[O-])c1.[Na+].[Na+] [NAV-AAR]	–	> 50 mg/mL	–	–
N#Cc1ccc(-c2cc(=O)[nH]c3c(-c4ccc(Cl)c(Cl)c4)c(C(F)(F)F)nn23)c(OC(=O)[C@@H](N)CCCCN)c1 [NAV-AA]	1.9 µM	> 500 µM	19 µM	–
N#Cc1ccc(-c2cc(=O)[nH]c3c(-c4ccc(Cl)c(Cl)c4)c(C4CC4)nn23)c(OC(=O)[C@@H](N)CCCCN)c1 [NAV-AB]	2.4 µM	500 µM	< 1 µM	–
O=c1cc(-c2ccc(F)cc2O)n2nc(Cc3ccccc3)c(-c3ccc(Cl)cc3)c2[nH]1 [NAV-AD]	2.4 µM	< 1 µM	< 1 µM	–
O=c1cc(-c2ccc(F)cc2O)n2nc(C3CC3)c(-c3ccc(Cl)c(Cl)c3)c2[nH]1 [NAV-AF]	1.9 µM	1.1 µM	< 1 µM	–
NCCCC[C@H](N)C(=O)Oc1ccccc1-c1cc(=O)[nH]c2c(-c3ccc(Cl)c(Cl)c3)c(C(F)(F)F)nn12 [NAV-AG]	26 µM	> 500 µM	435 µM	–
O=c1cc(-c2ccc(F)cc2O)n2nc(C(F)(F)F)c(-c3ccc(Cl)c(Cl)c3)c2[nH]1 [NAV-AW]	1.6 µM	< 1 µM	30 µM	–
O=c1cc(-c2ccc(F)cc2O)n2nc(C(F)(F)F)c(-c3ccc(Cl)cc3)c2[nH]1 [NAV-AY]	6.2 µM	4.5 µM	70 µM	–
O=c1cc(-c2ccccc2O)n2nc(Cc3ccccc3)c(-c3ccc(Cl)cc3)c2[nH]1 [NAV-C]	7.2 µM	9.2 µM	1.4 µM	–
O=c1cc(-c2ccc(Cl)cc2O)n2nc(Cc3ccccc3)c(-c3ccc(Cl)cc3)c2[nH]1 [NAV-D]	11 µM	< 1 µM	< 1 µM	–

Compound	IC50 ([3]; Table 1)	solubility [4, 6]	solubility [4, 7]	also measured
O=c1cc(-c2ccccc2O)n2nc(C(F)(F)F)c(C3CCCCC3)c2[nH]1 [NAV-E]	12 µM	< 1 µM	68 µM	–
O=c1cc(-c2ccc(Cl)cc2O)n2nc(C(F)(F)F)c(C3CCCCC3)c2[nH]1 [NAV-F]	4.9 µM	< 1 µM	21 µM	–
O=c1cc(-c2ccccc2O)n2nc(CN3CCOCC3)c(-c3ccc(Cl)cc3)c2[nH]1 [NAV-G]	> 50 µM	56 µM	82 µM	–
O=c1cc(-c2ccc(Cl)cc2O)n2nc(CN3CCOCC3)c(-c3ccc(Cl)cc3)c2[nH]1 [NAV-H]	30 µM	7 µM	13 µM	–
O=c1cc(-c2ccccc2O)n2nc(C3CC3)c(-c3ccc(Cl)c(Cl)c3)c2[nH]1 [NAV-I]	21 µM	29 µM	1.8 µM	–
O=c1cc(-c2ccc(Cl)cc2O)n2nc(C3CC3)c(-c3ccc(Cl)c(Cl)c3)c2[nH]1 [NAV-J]	12 µM	< 1 µM	< 1 µM	–
O=c1cc(-c2ccc(Cl)cc2O)n2nc(C(F)(F)F)c(-c3ccc(Cl)cc3)c2[nH]1 [NAV-K]	4.2 µM	< 1 µM	43 µM	–
O=c1cc(-c2ccc([N+](=O)[O-])cc2O)n2nc(C3CC3)c(-c3ccc(Cl)c(Cl)c3)c2[nH]1 [NAV-L]	6.2 µM	< 1 µM	20 µM	–
O=c1cc(-c2ccccc2O)n2nc(C(F)(F)F)c(-c3ccc(Cl)cc3)c2[nH]1 [NAV-M]	10 µM	4 µM	43 µM	–
O=c1cc(-c2ccccc2O)n2nc(C(F)(F)F)c(-c3ccc(Cl)c(Cl)c3)c2[nH]1 [NAV-O]	2.8 µM	< 1 µM	38 µM	–
N#Cc1ccc(-c2cc(=O)[nH]c3c(-c4ccc(Cl)c(Cl)c4)c(C(F)(F)F)nn23)c(O)c1 [NAV-P]	1.4 µM	5.75 µM	19.6 µM	–
N#Cc1ccc(-c2cc(=O)[nH]c3c(-c4ccc(Cl)cc4)c(C(F)(F)F)nn23)c(O)c1 [NAV-Q]	5.1 µM	< 1 µM	11 µM	–
N#Cc1ccc(-c2cc(=O)[nH]c3c(-c4ccc(Cl)cc4)c(Cc4ccccc4)nn23)c(O)c1 [NAV-R]	1.9 µM	< 1 µM	1.7 µM	–
N#Cc1ccc(-c2cc(=O)[nH]c3c(-c4ccc(Cl)c(Cl)c4)c(C4CC4)nn23)c(O)c1 [NAV-S]	2 µM	10.2 µM	14 µM	–
O=c1cc(-c2ccc(C(F)(F)F)cc2O)n2nc(C(F)(F)F)c(-c3ccc(Cl)c(Cl)c3)c2[nH]1 [NAV-T]	2.3 µM	13 µM	11 µM	–
O=c1cc(-c2ccc(C(F)(F)F)cc2O)n2nc(Cc3ccccc3)c(-c3ccc(Cl)cc3)c2[nH]1 [NAV-U]	6.7 µM	20 µM	14 µM	–
O=c1cc(-c2ccc(C(F)(F)F)cc2O)n2nc(C3CC3)c(-c3ccc(Cl)c(Cl)c3)c2[nH]1 [NAV-V]	3.2 µM	30 µM	6 µM	–
NCCCC[C@H](N)C(=O)Oc1ccccc1-c1cc(=O)[nH]c2c(-c3ccc(Cl)cc3)c(Cc3ccccc3)nn12 [NAV-Y]	30 µM	438 µM	144 µM	–
NCCCC[C@H](N)C(=O)Oc1cc(Cl)ccc1-c1cc(=O)[nH]c2c(-c3ccc(Cl)cc3)c(C(F)(F)F)nn12 [NAV-Z]	4.25 µM	450 µM	22 µM	–
